Data: patent US7300763B2, “Method of testing myelotoxicity with the use of flow cytometer” (Teijin Limited, priority 2000, dated 2007)

How the values were obtained:
rat bone marrow cells [1] = assay: Myelotoxicity by flow cytometer analysis of cell surface antigen-expressing bone marrow cells after administration of 5-FU; assay type: in vivo; settings: 50 mg/kg/day intravenously; for Number of CD45 Peak 1-expressing cells / Number of CD45 Peak 2-expressing cells / Number of CD45R-expressing cells / Number of CD71-expressing cells / Number of CD90-expressing cells: n = 3
Experimental: (1) Six-week-old male CD (SD) IGS rats purchased from Charles River Japan were used at the age of 8 weeks. During the housing period, the rats were fed with a feed for animals (Oriental Yeast Co., Ltd., CRF-1) and drinking water (well water containing 0.4% of a hypochlorite added) ad libitum. The animals were housed in metal cages (one animal per cage) and kept under conditions of a temperature of 23±1° C. and a humidity of 55±15%.
(2) The bone marrow was collected from left and right femurs. The femurs were taken out under anaethesia with pentobarbital, and both ends of the femurs were cut. The bone marrow was then flushed out with 1 mL of fetal bovine serum using a syringe with a 25G injection needle. Bone pieces or the like were removed by using a Pasteur pipette, and cells were then collected by centrifugation (3,000 rpm for 5 minutes).
(3) To 20 μL of the cells collected in (2), was added 5 mL of a phosphate-buffer-solution (PBS). Thereby, a cell suspension was obtained.
(4) To 200 μL of the cell suspension in (3), was added 2 μg of a specific antibody to the cell surface antigen. Incubation was carried out at room temperature for 45 minutes. Mouse IgG2a anti-rat CD2, mouse IgG1 anti-rat CD8, mouse IgA anti-rat CD11b, mouse IgG1 anti-rat CD45, mouse IgG2b anti-rat CD45R, mouse IgG2a anti-rat CD71 and mouse IgG2a anti-rat CD90 were used as the antibody. Mouse IgG1, mouse IgG2a, mouse IgG2b and mouse IgA were used as the isotype control antibody. All the antibodies labeled with fluorescein (FITC) (Pharmingen.) were used as the antibody.
(5) After incubation, 1 mL of Optilyse C (Beckman Coulter.) was added, and treatment was carried out for 10 minutes to hemolyze erythrocytes. After the hemolytic treatment, 1 mL of PBS was added, and incubation was carried out at room temperature for 10 minutes.
(6) Procedures of adding 1 mL of PBS to a cell precipitation obtained by centrifugation (3,000 rpm for 5 minutes) after incubation and thereby washing the cells were repeated twice.
(7) After washing, 2 mL of PBS was added to the cell precipitation to provide a cell suspension. Analysis was carried out with the use of a flow cytometer (EPICS XL-MCL, Beckman Coulter.) The analysis was conducted by following procedures described below. […] The fluorescence detector sensitivity of the flow cytometer was adjusted with the cells treated with the isotype antibody.
(§1) (2) 5-Fluorouracil (hereinafter abbreviated to 5-FU) as a chemotherapeutic agent in a dose of 50 mg/kg/day ([…], 10 mL/kg) was intravenously administered to the rats, and a physiological saline solution was used as the control substance.
(§2) The days of the experiment were indicated by the day of starting the administration as day 0. Groups for collecting the bone marrow on the day 0 and day 5 of the experiment were respectively set as groups administered with the control substance. Groups for collecting the bone marrow from day 1 to day 5 of the experiment were respectively set as groups administered with the 5-FU. The number of animals in each group was 3.
(4) Bone marrow collection, antibody treatment and analysis with the flow cytometer were carried out according to Example 1. A flow count (Beckman Coulter.) was added to the cell suspension during the flow cytometer analysis, and a calibration region was set on the cytogram of EPIS XL-MCL to make measurement. The absolute number of the respective cell surface antigen-expressing cells was calculated. Mouse IgGI anti-rat CD45, mouse IgG2b anti-rat CD45R, mouse IgG2a anti-rat CD71 and mouse IgG2a anti-rat CD90 were used as the antibody, and mouse IgG1, mouse IgG2a and mouse IgG2b were used as the isotype control antibody.
(6) The expression of cell surface antigens was measured for 15,000 bone marrow cells per individual with the use of the flow cytometer.

rat bone marrow cells [2] = assay: Observation of smears of bone marrow (May-Grünwald and Giemsa staining) in rats administered with 5-FU; assay type: in vivo; set-up: key to Number of Cells, Erythroblasts / Number of Cells, Immature Myelocytes: —: Undetected; settings: 50 mg/kg/day intravenously
Experimental: as §1, §2
(5) A part of bone marrow cells were suspended in an adequate amount of fetal bovine serum. An adequate amount of the resulting suspension was then dropped onto a slide glass, and a cover glass was obliquely applied to the droplet of the bovine fetal serum containing the bone marrow cells. The slide glass was directly moved to prepare smears (the wedge method). Each smear was subjected to May-Grünwald and Giemsa staining to carry out microscopic observation, and the ratio of the cells was calculated for each lineage and differentiation stage. After calculating the ratio, the resulting ratio was multiplied by the separately obtained number of bone marrow cells to determine the absolute number by observing the smear of each cell.
(7) Observation of smears was carried out for 500 bone marrow cells per individual (one smear).

Number of Cells, Erythroblasts (rat bone marrow cells [2]; Day 1, Mean ± SD, n = 3): 0.18 ± 0.07 ×10^6/μL | Number of Cells, Immature Myelocytes (rat bone marrow cells [2]; Day 1, Mean ± SD, n = 3): 0.20 ± 0.10 ×10^6/μL | Number of Cells, Lymphocytes (rat bone marrow cells [2]; Day 1, Mean ± SD, n = 3): 2.01 ± 0.86 ×10^6/μL | Number of Cells, Mature Myelocytes (rat bone marrow cells [2]; Day 1, Mean ± SD, n = 3): 0.49 ± 0.22 ×10^6/μL | Number of Cells, Erythroblasts (rat bone marrow cells [2]; Day 2, Mean ± SD, n = 3): 0.02 ± 0.03 ×10^6/μL | Number of Cells, Immature Myelocytes (rat bone marrow cells [2]; Day 2, Mean ± SD, n = 3): 0.09 ± 0.04 ×10^6/μL | Number of Cells, Lymphocytes (rat bone marrow cells [2]; Day 2, Mean ± SD, n = 3): 1.46 ± 0.21 ×10^6/μL | Number of Cells, Mature Myelocytes (rat bone marrow cells [2]; Day 2, Mean ± SD, n = 3): 0.95 ± 0.32 ×10^6/μL | Number of Cells, Erythroblasts (rat bone marrow cells [2]; Day 3, Mean ± SD, n = 3): 0.003 ± 0.001 ×10^6/μL | Number of Cells, Immature Myelocytes (rat bone marrow cells [2]; Day 3, Mean ± SD, n = 3): 0.003 ± 0.001 ×10^6/μL | Number of Cells, Lymphocytes (rat bone marrow cells [2]; Day 3, Mean ± SD, n = 3): 0.62 ± 0.13 ×10^6/μL | Number of Cells, Mature Myelocytes (rat bone marrow cells [2]; Day 3, Mean ± SD, n = 3): 0.39 ± 0.03 ×10^6/μL | Number of Cells, Erythroblasts (rat bone marrow cells [2]; Day 4, Mean ± SD, n = 3): 0.001 ± 0.001 ×10^6/μL | Number of Cells, Lymphocytes (rat bone marrow cells [2]; Day 4, Mean ± SD, n = 3): 0.56 ± 0.20 ×10^6/μL | Number of Cells, Mature Myelocytes (rat bone marrow cells [2]; Day 4, Mean ± SD, n = 3): 0.12 ± 0.02 ×10^6/μL | Number of Cells, Immature Myelocytes (rat bone marrow cells [2]; Day 4, n = 3): — | Number of Cells, Lymphocytes (rat bone marrow cells [2]; Day 5, Mean ± SD, n = 3): 0.51 ± 0.08 ×10^6/μL | Number of Cells, Mature Myelocytes (rat bone marrow cells [2]; Day 5, Mean ± SD, n = 3): 0.03 ± 0.01 ×10^6/μL | Number of Cells, Erythroblasts (rat bone marrow cells [2]; Day 5, n = 3): — | Number of Cells, Immature Myelocytes (rat bone marrow cells [2]; Day 5, n = 3): —
SMILES: O=c1[nH]cc(F)c(=O)[nH]1 [5-FU, 5-Fluorouracil]
Number of CD45 Peak 1-expressing cells (rat bone marrow cells [1]; Day 1, Mean ± SD): 1.65 ± 0.68 ×10^6/μL | Number of CD45 Peak 2-expressing cells (rat bone marrow cells [1]; Day 1, Mean ± SD): 0.76 ± 0.32 ×10^6/μL | Number of CD45R-expressing cells (rat bone marrow cells [1]; Day 1, Mean ± SD): 1.54 ± 0.69 ×10^6/μL | Number of CD71-expressing cells (rat bone marrow cells [1]; Day 1, Mean ± SD): 0.46 ± 0.17 ×10^6/μL | Number of CD90-expressing cells (rat bone marrow cells [1]; Day 1, Mean ± SD): 1.76 ± 0.79 ×10^6/μL | Number of CD45 Peak 1-expressing cells (rat bone marrow cells [1]; Day 2, Mean ± SD): 1.20 ± 0.32 ×10^6/μL | Number of CD45 Peak 2-expressing cells (rat bone marrow cells [1]; Day 2, Mean ± SD): 0.82 ± 0.20 ×10^6/μL | Number of CD45R-expressing cells (rat bone marrow cells [1]; Day 2, Mean ± SD): 1.46 ± 0.27 ×10^6/μL | Number of CD71-expressing cells (rat bone marrow cells [1]; Day 2, Mean ± SD): 0.30 ± 0.15 ×10^6/μL | Number of CD90-expressing cells (rat bone marrow cells [1]; Day 2, Mean ± SD): 1.58 ± 0.18 ×10^6/μL | Number of CD45 Peak 1-expressing cells (rat bone marrow cells [1]; Day 3, Mean ± SD): 0.34 ± 0.13 ×10^6/μL | Number of CD45 Peak 2-expressing cells (rat bone marrow cells [1]; Day 3, Mean ± SD): 0.75 ± 0.25 ×10^6/μL | Number of CD45R-expressing cells (rat bone marrow cells [1]; Day 3, Mean ± SD): 0.59 ± 0.11 ×10^6/μL | Number of CD71-expressing cells (rat bone marrow cells [1]; Day 3, Mean ± SD): 0.09 ± 0.05 ×10^6/μL | Number of CD90-expressing cells (rat bone marrow cells [1]; Day 3, Mean ± SD): 0.49 ± 0.10 ×10^6/μL | Number of CD45 Peak 1-expressing cells (rat bone marrow cells [1]; Day 4, Mean ± SD): 0.05 ± 0.02 ×10^6/μL | Number of CD45 Peak 2-expressing cells (rat bone marrow cells [1]; Day 4, Mean ± SD): 0.64 ± 0.24 ×10^6/μL | Number of CD45R-expressing cells (rat bone marrow cells [1]; Day 4, Mean ± SD): 0.41 ± 0.12 ×10^6/μL | Number of CD71-expressing cells (rat bone marrow cells [1]; Day 4, Mean ± SD): 0.02 ± 0.02 ×10^6/μL | Number of CD90-expressing cells (rat bone marrow cells [1]; Day 4, Mean ± SD): 0.16 ± 0.06 ×10^6/μL | Number of CD45 Peak 1-expressing cells (rat bone marrow cells [1]; Day 5, Mean ± SD): 0.03 ± 0.02 ×10^6/μL | Number of CD45 Peak 2-expressing cells (rat bone marrow cells [1]; Day 5, Mean ± SD): 0.51 ± 0.06 ×10^6/μL | Number of CD45R-expressing cells (rat bone marrow cells [1]; Day 5, Mean ± SD): 0.32 ± 0.08 ×10^6/μL | Number of CD71-expressing cells (rat bone marrow cells [1]; Day 5, Mean ± SD): 0.02 ± 0.01 ×10^6/μL | Number of CD90-expressing cells (rat bone marrow cells [1]; Day 5, Mean ± SD): 0.09 ± 0.02 ×10^6/μL | Change of number of CD45 (Peak 1)-expressing cells, in words (rat bone marrow cells [1]; day 1 to day 5): began decreasing in a period between day 1 and day 2 of the experiment and was decreased to such an extent of the scarcely observed expressing cells on day 4 of the experiment | Change of number of CD45 (Peak 2)-expressing cells, in words (rat bone marrow cells [1]; day 1 to day 5): A decrease was not observed | Change of number of CD45R-expressing cells, in words (rat bone marrow cells [1]; day 1 to day 5): the decrease continued on day 3 of the experiment and thereafter | Change of number of CD71-expressing cells, in words (rat bone marrow cells [1]; day 1 to day 5): decreased to such an extent of the scarcely observed expressing cells on day 3 of the experiment and thereafter | Change of number of CD90-expressing cells, in words (rat bone marrow cells [1]; day 1 to day 5): markedly decreased on day 3 of the experiment and thereafter | Change of erythroblasts, in words (rat bone marrow cells [2]; day 1 to day 5): decreased to such an extent of the scarcely observed cells on day 3 of the experiment and thereafter | Change of immature myelocytes, in words (rat bone marrow cells [2]; day 1 to day 5): decreased to such an extent of the scarcely observed cells on day 3 of the experiment and thereafter | Change of lymphocytes, in words (rat bone marrow cells [2]; day 1 to day 5): decreased on day 3 of the experiment and thereafter | Change of number of mature myelocytes, in words (rat bone marrow cells [2]; day 1 to day 5): temporarily increased from day 1 to day 3 of the experiment and then decreased on day 4 of the experiment and thereafter
